Results taken from patent publication US20160067425A1, “DEVICES AND METHODS FOR TREATING TISSUES AND TISSUE CONDITIONS” (priority 2014, published 2016).

Tests used:
[1] = test system: basal cell carcinoma (BCC); assay: Intralesional treatment of clamp-isolated basal cell carcinoma on the ear lobe (Example 1); type: in vivo, human
Protocol: A person with basal cell carcinoma (one year history of asymptomatic growth) on their left ear lobe was treated by mechanically isolating the basal cell carcinoma (BCC). Diagnosis of BCC was made based on the lesion's clinical presentation as a well-circumscribed pearly nodule with central crusted ulceration (see FIG. 14A) and the results of a shave biopsy (see FIG. 15A). The patient refused surgical therapy.
A chalazion clamp was used to isolate the tissue surrounding the BCC. One fifth unit (0.2 cc×1 unit/cc) of bleomycin in 1% lidocaine was injected into the clamped region (systemic bleomycin concentrations are typically in the range of 0.00023 units/mL or about 1000×lower). […] After 20 minutes, an 18-gauge needle was used to remove most of the injected fluid from the clamped area. The chalazion clamp was then removed.

[2] = typical systemic range, compared with 1 unit/cc injected; cited from earlier work

bleomycin
adverse effects / patient complaints ([1]; 0.2 unit intralesional in clamped region, 20 minutes): no adverse effects | retention of injected agent in the pressure isolated region ([1]; chalazion clamp, evidenced by localized raised and stretched area of the skin): remained within the clamped area | clinical appearance of the BCC after treatment ([1]; patient, left ear lobe, 0.2 cc x 1 unit/cc in 1% lidocaine injected into chalazion-clamped region, removed after 20 minutes, 25-days post-treatment): clinically cured | histology from 4 mm punch biopsy after treatment ([1]; post-treatment punch biopsy, FIG. 15B): confirm by histology | systemic concentrations typically used [2]: ~0.00023 units/mL
